# Measurements taken from patent publication US6514692B2, “Method for treatment of immunodeficiency virus infection” (priority 1996, dated 2003).
# Where “and” joins values, the source holds several entries; their conditions need not be identical. Equal entries are not always repeated. Where no end group is shown, it is not given here.
# How the values were obtained:
# [1] = in vitro; settings: human, ME180 cells
# Source text: (§1) ME180 cells, a cervical epithelial cell line, were obtained from the American Type Culture Collection. These cells were thawed from liquid nitrogen and grown in RPMI 1640 medium supplemented with 10t fetal bovine serum, glutamine and antibiotics. The cells were adherent and were trypsinized (0.5% trypsin in HBSS) to remove them from the flask for passaging and use in assays. For use in the microtiter transmission inhibition assay, ME180 cells were trypsinized, washed and seeded in 96-well flat bottom microtiter plates (COSTAR) at a density of 5×10^3 cells per well. The cells were incubated at 37° C. for 24 hours prior to the tart of the assay. H9 cells chronically infected with he SK1 isolate of HIV-1 were treated with 200 μg/ml mitomycin C for 60 minutes at 37° C. After treatment the cells were washed three times with tissue culture medium. The chronically infected lymphocytes were added to each well at a density of 2×10^4 cells per well. The concentration of mitomycin C used in the treatment of the lymphocytes was chosen to allow lymphocyte survival for the period of time required to transmit virus to the uninfected ME180 cells, but to die prior to the time of assay so as not to contribute to the p24 signal used as the endpoint (see below). In the transmission assay the lytic peptides D4E1 and D2A21, with and without 150 μg/ml pig mucin, were added prior to the addition of chronically infected cells or were mixed with the chronically infected cells prior to their addition to the monolayer of ME180 cells. Mucin was included because it is an abundant constituent of the normal vaginal secretions of a human being, thus any chemotherapeutic agent targeting HIV should be active in its presence if it is to have clinical value. […] The lymphocytes and peptide were co-cultured with the ME180 cells for 6 hours and then removed by washing the ME180 monolayer four times with PBS. The plate was then incubated at 37° C. for six days. Medium was removed and changed every 48 hours during the incubation stage. No further peptide was added after the initial dose. At six days post-co-cultivation, the supernatant was removed from the wells and evaluated for the quantity of p24 antigen by ELISA. The ELISA was performed according to the manufacturer's recommendations. The amount of virus production in wells treated with various concentrations of the peptides was evaluated with appropriate cell and virus controls. Data are reported as a percent of virus control at each drug concentration. Linear regression analysis was used to calculate the […] and IC95 concentrations of the transmission inhibitor. […] TI represents the toxicity index, which is the ratio of the TC50/IC50, and is an indication of the relative concentrations window that exists between efficacy and toxicity.
# [2] = test system: ME180 cells; assay: toxicity (XTT) in transmission inhibition assay; settings: for TOXICITY VALUES (XTT), single samples: samples 1-3
# Source text: as §1
# [3] = 0.32 μg/ml, with 150 μg/ml pig mucin
# [4] = 1 μg/ml, with 150 μg/ml pig mucin
# [5] = 3.2 μg/ml, with 150 μg/ml pig mucin
# [6] = 10 μg/ml, with 150 μg/ml pig mucin
# [7] = 32 μg/ml, with 150 μg/ml pig mucin
# [8] = 100 μg/ml, with 150 μg/ml pig mucin
sequence,measurement,setting,value
FKLRAKIKVRLRAKIKL [D4E1],"viability at 6 h, 0.32 µg/mL",[1],98.6%
same,"viability at 6 h, 1 µg/mL",[1],99.2%
same,"viability at 6 h, 3.2 µg/mL",[1],95.4%
same,"viability at 6 h, 10 µg/mL",[1],97.7%
same,"viability at 6 h, 32 µg/mL",[1],100%
same,"viability at 6 h, 100 µg/mL",[1],27.1%
same,"TOXICITY VALUES (XTT), MEAN","[2]; 0.32 μg/ml, no mucin",0.521 O.D. @ 450/650 nm
same,"TOXICITY VALUES (XTT), single samples","[2]; 0.32 μg/ml, no mucin",0.518 O.D. @ 450/650 nm and 0.528 O.D. @ 450/650 nm and 0.516 O.D. @ 450/650 nm
same,"TOXICITY VALUES (XTT), MEAN",[2]; [3],0.521 O.D. @ 450/650 nm
same,"TOXICITY VALUES (XTT), single samples",[2]; [3],0.518 O.D. @ 450/650 nm and 0.528 O.D. @ 450/650 nm
same,"TOXICITY VALUES (XTT), MEAN","[2]; 1 μg/ml, no mucin",0.523 O.D. @ 450/650 nm
same,"TOXICITY VALUES (XTT), single samples","[2]; 1 μg/ml, no mucin",0.535 O.D. @ 450/650 nm and 0.523 O.D. @ 450/650 nm and 0.511 O.D. @ 450/650 nm
same,"TOXICITY VALUES (XTT), MEAN",[2]; [4],0.523 O.D. @ 450/650 nm
same,"TOXICITY VALUES (XTT), single samples",[2]; [4],0.535 O.D. @ 450/650 nm and 0.523 O.D. @ 450/650 nm and 0.511 O.D. @ 450/650 nm
same,"TOXICITY VALUES (XTT), MEAN","[2]; 3.2 μg/ml, no mucin",0.503 O.D. @ 450/650 nm
same,"TOXICITY VALUES (XTT), single samples","[2]; 3.2 μg/ml, no mucin",0.486 O.D. @ 450/650 nm and 0.513 O.D. @ 450/650 nm
same,"TOXICITY VALUES (XTT), MEAN",[2]; [5],0.503 O.D. @ 450/650 nm
same,"TOXICITY VALUES (XTT), single samples",[2]; [5],0.486 O.D. @ 450/650 nm and 0.513 O.D. @ 450/650 nm
same,"TOXICITY VALUES (XTT), MEAN","[2]; 10 μg/ml, no mucin",0.515 O.D. @ 450/650 nm
same,"TOXICITY VALUES (XTT), single samples","[2]; 10 μg/ml, no mucin",0.493 O.D. @ 450/650 nm and 0.526 O.D. @ 450/650 nm and 0.524 O.D. @ 450/650 nm
same,"TOXICITY VALUES (XTT), MEAN",[2]; [6],0.515 O.D. @ 450/650 nm
same,"TOXICITY VALUES (XTT), single samples",[2]; [6],0.493 O.D. @ 450/650 nm and 0.526 O.D. @ 450/650 nm and 0.524 O.D. @ 450/650 nm
same,"TOXICITY VALUES (XTT), MEAN","[2]; 32 μg/ml, no mucin",0.529 O.D. @ 450/650 nm
same,"TOXICITY VALUES (XTT), single samples","[2]; 32 μg/ml, no mucin",0.551 O.D. @ 450/650 nm and 0.513 O.D. @ 450/650 nm and 0.524 O.D. @ 450/650 nm
same,"TOXICITY VALUES (XTT), MEAN",[2]; [7],0.529 O.D. @ 450/650 nm
same,"TOXICITY VALUES (XTT), single samples",[2]; [7],0.551 O.D. @ 450/650 nm and 0.513 O.D. @ 450/650 nm and 0.524 O.D. @ 450/650 nm
same,"TOXICITY VALUES (XTT), MEAN","[2]; 100 μg/ml, no mucin",0.143 O.D. @ 450/650 nm
same,"TOXICITY VALUES (XTT), single samples","[2]; 100 μg/ml, no mucin",0.138 O.D. @ 450/650 nm and 0.162 O.D. @ 450/650 nm and 0.128 O.D. @ 450/650 nm
same,"TOXICITY VALUES (XTT), MEAN",[2]; [8],0.143 O.D. @ 450/650 nm
same,"TOXICITY VALUES (XTT), single samples",[2]; [8],0.138 O.D. @ 450/650 nm and 0.162 O.D. @ 450/650 nm and 0.128 O.D. @ 450/650 nm
